Assay results published in PubChem BioAssay (NCI).
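Where inhibition never reached the appropriate level, the endpoint shown equals the highest concentration tested. Otherwise, values were interpolated linearly from a five-concentration, 48-hour dose response in 96-well plates. Abbreviation: GI50, concentration required for 50% inhibition of growth. TGI denotes the concentration required for complete inhibition of growth.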

Legend:
Assay in all cases: DTP human tumour cell line panel, 48 h
786-0 renal = system: 786-0 renal
A549 NSCLC = system: A549 NSCLC
CCRF-CEM leukemia = system: CCRF-CEM leukemia
KM12 colon = system: KM12 colon
MDA-MB-231 breast = system: MDA-MB-231 breast
MOLT-4 leukemia = system: MOLT-4 leukemia
NCI-H23 lung = system: NCI-H23 lung
OVCAR-4 ovarian = system: OVCAR-4 ovarian
RPMI-8226 leukemia = system: RPMI-8226 leukemia
RXF 393 renal = system: RXF 393 renal

Row | SMILES | GI50 (786-0 renal) [µM] | TGI (786-0 renal) [µM] | GI50 (A549 NSCLC) [µM] | TGI (A549 NSCLC) [µM] | GI50 (CCRF-CEM leukemia) [µM] | TGI (CCRF-CEM leukemia) [µM] | GI50 (KM12 colon) [µM] | TGI (KM12 colon) [µM] | GI50 (MDA-MB-231 breast) [µM] | TGI (MDA-MB-231 breast) [µM] | GI50 (MOLT-4 leukemia) [µM] | TGI (MOLT-4 leukemia) [µM] | GI50 (NCI-H23 lung) [µM] | TGI (NCI-H23 lung) [µM] | GI50 (OVCAR-4 ovarian) [µM] | TGI (OVCAR-4 ovarian) [µM] | GI50 (RPMI-8226 leukemia) [µM] | TGI (RPMI-8226 leukemia) [µM] | GI50 (RXF 393 renal) [µM] | TGI (RXF 393 renal) [µM]
1 | COC(=O)C(C)NC(=O)c1ccccc1I(OS(=O)(=O)C(F)(F)F)c1ccccc1 (centres undefined) | 25 | 51 | 30.6 | > 75.2 | 20.3 | 60.4 | 17.7 | 38.7 | 15.6 | 34.5 | 42.3 | > 85.1 | 18.5 | > 53.3 | 19.1 | 50.9 | 3 | 25.8 | 17.7 | 41.6
2 | COc1ccc(Cn2cc3c(c2-c2cc(OC)c(OC)c(OC)c2)CCc2cnoc2-3)cc1 | 0.575 | > 100 | 0.372 | > 100 | 0.291 | > 24.3 | 0.281 | > 24.1 | 0.735 | > 100 | 0.468 | > 100 | 0.388 | > 100 | 0.768 | > 100 | 0.356 | – | 0.26 | > 100
3 | CC(=O)/C(=C/N1CCNC1=S)C(=O)Nc1ccccc1C | – | > 100 | – | > 100 | – | > 100 | – | > 100 | – | > 100 | – | > 100 | – | > 100 | – | > 100 | – | > 100 | – | > 100
4 | CN(C)CCCn1c(-c2nonc2N)nc2cnccc21 | > 25 | > 25 | > 25 | > 25 | > 25 | > 25 | > 25 | > 25 | > 25 | > 25 | > 25 | > 25 | > 25 | > 25 | > 25 | > 25 | > 25 | > 25 | > 5.19 | > 25
